Assay results taken from ChEMBL document CHEMBL1201862, “PubChem BioAssay data set” (2004).
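Compound exposure: 48 hours, 5 concentrations, 96-well plates. Here, GI50 denotes the concentration required for 50% inhibition of growth.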 Calls of active or inactive are those of the source. Rule as the data show it: active = GI50 up to about 1.1 µM and inactive = higher.

Key:
Experiment in all cases: NCI-60 cell line screen, 48 h
EKVX = system: EKVX
UACC-62 = system: UACC-62
HOP-92 = system: HOP-92
IGROV-1 = system: IGROV-1
SNB-19 = system: SNB-19
M14 = system: M14
SW-620 = system: SW-620
SF-539 = system: SF-539
ACHN = system: ACHN
OVCAR-4 = system: OVCAR-4
TK-10 = system: TK-10
SK-MEL-2 = system: SK-MEL-2
K562 = system: K562
SK-OV-3 = system: SK-OV-3
CAKI-1 = system: CAKI-1
SR = system: SR
NCI-H226 = system: NCI-H226
HT-29 = system: HT-29

Measured: GI50

CCOC(=O)C1Cc2[nH]c3ccccc3c2C(C)C1C (stereo not drawn)
inactive: EKVX 10.8 µM | UACC-62 10.8 µM | HOP-92 15.7 µM | IGROV-1 15.3 µM | SNB-19 17.7 µM | M14 16.7 µM | SW-620 17.3 µM | SF-539 16.5 µM | ACHN 13.7 µM | OVCAR-4 16 µM | TK-10 30 µM | SK-MEL-2 20.2 µM | K562 23.5 µM | SK-OV-3 18.9 µM | CAKI-1 16.4 µM | SR 16.6 µM | NCI-H226 11.6 µM

O=C(C=C1SCCS1)/C=C\c1ccc(Cl)cc1
inactive: EKVX > 100 µM | UACC-62 99.8 µM | HOP-92 > 100 µM | IGROV-1 > 100 µM | SNB-19 > 100 µM | M14 > 100 µM | SW-620 > 100 µM | SF-539 > 100 µM | OVCAR-4 > 100 µM | TK-10 97.5 µM | SK-MEL-2 > 100 µM | HT-29 41.4 µM | K562 49.5 µM | SK-OV-3 > 100 µM | CAKI-1 > 100 µM | SR 85.7 µM | NCI-H226 83.2 µM

CC12C/C(=C\c3ccccc3)C(=O)C3C1CCCC32
inactive: UACC-62 > 100 µM | HOP-92 > 100 µM | IGROV-1 > 100 µM | SNB-19 > 100 µM | M14 > 100 µM | SW-620 > 100 µM | SF-539 > 100 µM | ACHN > 100 µM | OVCAR-4 66.4 µM | TK-10 > 100 µM | SK-MEL-2 > 100 µM | HT-29 31.6 µM | K562 38.6 µM | SK-OV-3 > 100 µM | CAKI-1 > 100 µM | SR 36.8 µM | NCI-H226 > 100 µM

COC(=O)C(=O)C(C(=O)C(=O)Nc1ccc([N+](=O)[O-])cc1C#N)c1nc2ccc([N+](=O)[O-])cc2nc1O (stereo not drawn)
inactive: EKVX 35.6 µM | UACC-62 > 100 µM | HOP-92 93.1 µM | SNB-19 > 100 µM | M14 > 100 µM | SW-620 > 100 µM | SF-539 > 100 µM | ACHN > 100 µM | OVCAR-4 > 100 µM | TK-10 > 100 µM | SK-MEL-2 > 100 µM | HT-29 > 100 µM | K562 > 100 µM | SK-OV-3 > 100 µM | CAKI-1 94.6 µM | SR 96.8 µM | NCI-H226 57.5 µM
